{"source": "patent US6410551B1", "about": "“Tetrazole derivatives” (Byk Gulden Lomberg Chemische Fabrik GmbH, priority 1997, dated 2002)", "key": {"[1]": {"system": "PDE 4", "assay": "Inhibition of PDE 4 activity (method of Bauer and Schwabe, adapted to microtiter plates)", "assay_type": "biochemical", "conditions": "inhibitory concentration as -log IC50 (mol/l)", "procedure": "1. Inhibition of PDE 4 Activity\nThe activity test was carried out by the method of Bauer and Schwabe, which was adapted to microtiter plates (Naunyn-Schmiedeberg's Arch. Pharmacol. 1980, 311, 193-198). In this connection, the PDE reaction is carried out in the first step. In a second step, the resultant 5′-nucleotide is cleaved to give the uncharged nucleoside by a 5′-nucleotidase of the snake venom from Crotalus atrox. In the third step, the nucleoside is separated from the remaining charged substrate on ion exchange columns. The columns are eluted with 2 ml of 30 mM ammonium formate (pH 6.0) directly into minivials to which 2 ml of scintilation fluid is additionally added for counting."}}}
{"smiles": "CCOc1cc2c(cc1OC)C(c1ccc(-c3nnn(CC)n3)cc1)=N[C@H]1CCCC[C@@H]21", "note": "(racemic) [Compound 2, (+/−)-cis-9-Ethoxy-8-methoxy-6-[4-(2ethyl-2H-tetrazol-5-yl)phenyl]-1,2,3,4,4a,10b-hexahydrophenanthridine]", "values": [{"measurement": "Inhibition of the PDE 4 activity, −log IC50", "setting": "[1]", "value": 8.78}, {"measurement": "melting point", "value": "167 to 170", "unit": "°C"}]}
